Usually melting point stands for the temperature of the solid-liquid transition.

Where only a bound is given, the exact number is not on record here.

Compound `O=S(=O)(CCc1ccc(Cl)cc1)CCc1ccc(Cl)cc1` gave a melting point of 42 to 43 °C.

As to `O=C1CCCOc2ccc(OCc3ccccc3)cc21`, the melting point lay within 62 to 63 °C.

With `Cc1ccc(-c2ccccc2-c2n[nH]c(=O)o2)cc1`, the melting point fell in the range of 123 to 125 °C.

The compound `Cc1nc2cnccc2n1-c1ccc2c(c1)CC(C#N)C2` (centres undefined) returned a melting point of 174 to 176 °C.

Turning to `CCCCS(=O)(=O)N1CCC(c2ccc(O)cc2O)CC1`, the melting point is 182 to 183 °C.

Compound `O=C(NC1CCC1)c1ccc(-c2ccc3nnn(Cc4ccc5ncccc5c4)c3n2)cc1F` showed a melting point of 171 to 174 °C.

With `NC(=O)c1nsc(N)c1C(N)=O`, the melting point is 205 °C.

Compound `C=CCN1Cc2cscc2Nc2ccccc21` gave a melting point of 67 to 69 °C.

`COc1ccc(C2=NC(C)(C)CO2)c(Cc2ccccc2)c1OC` yielded a melting point of 81 to 82 °C.

`COC(=O)NC(C#N)Cc1ccc(OC)c(OC2CCCC2)c1` (centres undefined) showed a melting point of 121 to 122 °C.

`Nc1nc(F)nc2nc[nH]c12` registered a melting point above 300 °C.

`COc1cc(Nc2c(C#N)cnc3cc4cc(OC)c(OCCN5CCOCC5)cc4cc23)c(Cl)cc1F` had a melting point of 204 to 214 °C.

Take `COCC(C)(Oc1ccc(CC(=O)Nc2cc(C)cc(C)c2)cc1)C(=O)O` (centres undefined): the melting point lay within 170 to 172 °C.

`CC1(COc2ccc(CC3SC(=O)NC3=O)cc2)CCC(=O)CC1` (centres undefined) registered a melting point of 134 to 135 °C.

The compound `CCCCCCCCc1sc(NC(=O)c2cc3ccccc3n2CCC(=O)OCC)nc1-c1cc(OC)c(Cl)cc1OC` returned a melting point of 59 to 61 °C.

In turn, `CCCCCCCCCCCCCCCCS(=O)(=O)OCc1cc(OC)c(OC)cc1[N+](=O)[O-]` came in with a melting point of 81 to 82 °C.

Regarding `COc1ccc2c(c1)NC(=O)c1ccccc1O2`, the melting point fell in the range of 164 to 165 °C.

For `O=c1[nH]cccc1Cc1ccccc1`, the melting point was in the range of 158 to 160 °C.

Take `CCC(C)c1ccc(NS(=O)(=O)c2ccc(N3CCNC3=O)cc2)cc1` (centres undefined): the melting point fell in the range of 157 to 159 °C.

In the case of `CCCCN(Cc1ccc(-c2ccccc2-c2nnn[nH]2)cc1)c1nc(C)cc(C)n1`, the melting point lay in the range of 148 to 150 °C.

For the compound `C#CCNc1nc(NCC=C)nc2c(C)csc12`, the melting point was in the range of 95 to 96 °C.

Consider `CC1(C)COc2ccc(C(F)(F)F)cc2C(O)(c2ccccn2)C1` (centres undefined), for which the melting point was 116 °C.

As to `COc1ccc(-n2nc(Sc3ccc(C)c(C)c3)c(C)c(C#N)c2=O)cc1`, the melting point was in the range of 158 to 160 °C.

As to `CCS(=O)(=O)Nc1cc(-n2ncc(=O)n(C)c2=O)c(F)cc1C#N`, the melting point was found to be 233 °C.

In the case of `Cc1cc2c(cc1C(O)c1c(C(F)(F)F)ccnc1Cl)OCO2` (centres undefined), the melting point fell in the range of 127 to 130 °C.

Take `O=C(Cn1c(=O)c(=O)[nH]c2cc([N+](=O)[O-])c(-n3cccc3)cc21)NCc1ccccc1`: the melting point is above 300 °C.

`N#CC1CN1C(=O)NSC(F)(F)F` (centres undefined) registered a melting point of 83 to 85 °C.

In the case of `c1cc(-c2nc(COC3CCCCO3)no2)sc1CN1CCCCCC1` (centres undefined), the melting point lay in the range of 79 to 81 °C.

In the case of `CCOC(=O)C(C)=Cc1cn(Cc2ccc(C(=O)OC(C)(C)C)cc2OC)c2cc(C(=O)NCC3CCCC3)ccc12`, the melting point fell in the range of 118 to 120 °C.

`S=C1CN=C(c2ccccc2Cl)c2cc(CCc3ccc(-c4ccccc4)cc3)sc2N1` displayed a melting point of 187 to 189 °C.

On to `CCCCN(CC(=O)c1ccc(OCc2ccccc2)c2[nH]c(C(=O)OCCN3CCOCC3)cc12)Cc1ccccc1`, for which the melting point was 149 to 150 °C.

As to `CC(C)CNn1c(=O)c(Oc2ccc(F)cc2F)cc2cnc(SCc3ccccc3)nc21`, the melting point lay within 132 to 134 °C.

Take `Clc1ccc(-c2nsc3cc(OCCCCBr)ccc23)cc1`: the melting point fell in the range of 68 to 69 °C.

Take `COC(=O)c1nn(C)c2ccccc12`: the melting point fell in the range of 78 to 79 °C.

With `N=C(N)c1ccc(Cl)cc1`, the melting point is 266 to 268 °C.

With `CC(C)(C)c1ccc(-c2nc(N)sc2-c2ccncc2)cc1`, the melting point fell in the range of 254 to 257 °C.

In turn, `COc1ccc(C(=O)c2c(Cl)cccc2Cl)c(C)c1` yielded a melting point of 89 °C.

Compound `COc1cc(OC)cc(-c2cc(=O)c3ccc(OCC(O)CNC(C)C)cc3o2)c1` (centres undefined) had a melting point of 155 to 156 °C.

Regarding `Cc1nc(-n2cnn(Cc3ccc(C(F)(F)F)cc3)c2=O)sc1C(=O)NCc1cccnc1`, the melting point fell in the range of 156 to 158 °C.

For `COC(=O)Cc1csc(NC(=O)C(CC2CCCC2)c2ccc(Cl)c(Cl)c2)n1` (centres undefined), the melting point was 150 to 151 °C.

Compound `CN1[C@@H](c2cccc(I)c2)c2ccccc2S1(=O)=O` showed a melting point of 156 °C.

Regarding `N#Cc1ccc(C=S)c(-c2ccccc2)c1`, the melting point is 88 °C.

Compound `O=C(O)C1=Cc2cc(-c3ccc(Cl)cc3)ccc2OC1C(F)(F)F` (centres undefined) displayed a melting point of 212 to 213 °C.

Compound `CC(C)CC(=O)Nc1c(C(N)=O)nnn1Cc1ccccc1` showed a melting point of 181 to 182 °C.

As for `CNCc1nnc(-c2ccc3occ(-c4cccc(OC(F)(F)F)c4)c3c2)o1`, the melting point lay in the range of 65 to 66 °C.

`COC(=O)CCc1cn(Cc2ccc(C(=O)O)cc2OC)c2cc(C(=O)NCC3CCCC3)ccc12` gave a melting point of 181 to 182 °C.

Compound `CCCC1COC(c2cc(F)c(C(F)(F)Oc3ccc(-c4cc(F)c(OC(F)(F)F)c(F)c4)c(F)c3)c(F)c2)OC1` (centres undefined) yielded a melting point of 61 °C.

The compound `CCOC(=O)C1CCc2c(oc3ccc(C(N)=O)cc23)C1` (centres undefined) showed a melting point of 206 to 208 °C.

For the compound `CCOC(=O)c1cc2cccc(NS(=O)(=O)c3ccc(Cl)s3)c2[nH]1`, the melting point was in the range of 180 to 181 °C.

As for `COc1ccc(C(=O)c2c(C)cc(NC(C)(C)C)nc2NC(C)(C)C)cc1`, the melting point lay in the range of 127 to 129 °C.

In turn, `Cc1oc2c(Br)cc(C=O)cc2c1C` returned a melting point of 126 °C.

`CCCCCCCCCCOc1cc(OCCCCCCCCCC)cc(C(=O)OC)c1` had a melting point of 52 to 53 °C.

In turn, `O=C(Cl)N1CC(Oc2ccc(F)cc2)C1` displayed a melting point of 44 to 52 °C.

Compound `Nc1ccc(-c2nc(Cl)c3c(=O)[nH][nH]c(=O)c3c2N)cc1` returned a melting point above 300 °C.

Compound `Nc1nc(O)c2c(n1)NC[C@H](CCc1ccc(Br)cc1)C2` had a melting point of 275 to 283 °C.

In the case of `Cc1cc(SC(C)C)c(NC(=O)CCCCCCSc2nc3ccccc3s2)c(SC(C)C)n1`, the melting point was 74 to 76 °C.

Regarding `CCS(=O)(=O)c1ccc(C(=O)C2C(=O)CCCC2=O)c(Cl)c1C1=NOC2OCCC12` (centres undefined), the melting point was 99 °C.

In the case of `CC(=O)OC(C)c1ccc(Cl)c2nc3n(c12)CCCN3c1ccc(Cl)cc1Cl` (centres undefined), the melting point fell in the range of 204 to 206 °C.

In the case of `Nc1ncnc2c1ncn2Cc1nc2ccc(Br)cc2c(=O)n1-c1ccccc1Cl`, the melting point is 284 to 285 °C.

Take `COc1ccc(OC)c(OC)c1OC`: the melting point lay in the range of 84 to 85 °C.

In the case of `CCNC(=O)c1ccc2ncc(C3CCN(C)CC3)c-2[nH]1`, the melting point was in the range of 117 to 120 °C.

`CNC(Cc1ccccc1)C(=O)N[C@@H](Cc1cccc2ccccc12)C(=O)O` (some centres undefined) showed a melting point of 104 to 107 °C.

Consider `Fc1ccc(-c2cc(CNc3cc(C4CC=CS4)n[nH]3)n[nH]2)cc1` (centres undefined), for which the melting point lay in the range of 128 to 130 °C.

`COc1cc(OC)nc(NC(=O)NS(=O)(=O)c2ccccc2C2=NOCCO2)n1` registered a melting point of 189 °C.

Values taken from a melting point compilation (Tetko et al.; mined from patent text by program, amines drawn as free bases though some values may be those of a salt).
